Holding throughout (experiment): Intracellular calcium mobilization (Fluo-4NW) in transfected HEK293T cells
What all share (format): cell-based
Common to all, as to conditions: read-out: EC50 of agonist U46619 (calcium mobilized), transiently transfected HEK293T cells, mean ± S.E

One assay has as its target T1, TP G164A mutant (Homo sapiens, UniProt P21731, G164A).
T1 construct: expressed in transfected cells; HEK293T (calcium assays)
T1 sequence (P21731 1-343 G164A): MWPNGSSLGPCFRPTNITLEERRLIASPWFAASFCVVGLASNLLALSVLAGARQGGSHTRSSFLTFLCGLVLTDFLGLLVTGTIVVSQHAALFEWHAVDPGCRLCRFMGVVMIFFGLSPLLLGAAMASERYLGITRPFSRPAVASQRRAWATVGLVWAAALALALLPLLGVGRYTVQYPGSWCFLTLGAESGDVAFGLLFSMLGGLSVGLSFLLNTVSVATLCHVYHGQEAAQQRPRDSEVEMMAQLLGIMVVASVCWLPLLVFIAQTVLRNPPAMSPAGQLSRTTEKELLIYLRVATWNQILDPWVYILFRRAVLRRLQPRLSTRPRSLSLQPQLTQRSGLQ
How it is done:
(§1) Amino acid substitutions were introduced into the synthetic TPα gene carried by the expression vector pMT4 as described previously, [29]. DNA sequences of all the mutated genes were verified by automated DNA sequencing. To minimize variations in transfection efficiency, the total amount transfected DNA was kept constant in all cases at 1 µg of DNA per 7×10^5 cells. The wild type TP or mutant genes were expressed in COS-1 cells using a DEAE-dextran based transient transfection method, [29], and in HEK293T cells using lipofectamine 2000 (Invitrogen). Except unless specified, the membranes prepared from COS-1 cells were used for radioligand binding assays and immunoblots. For intracellular calcium determination assays and immunofluorescence imaging, HEK293T cells were used. For transient transfections of HEK293T cells using the plasmid pMT4, lipofectamine 2000 (Invitrogen) mediated transfection was used as described by the manufacturer. Membranes were prepared using Buffers A and B and as described previously, [29]. The protein concentration in the resuspended membrane pellet was determined using a modified DC protein assay kit from Bio-Rad Laboratories (Hercules, CA).
(§2) Changes in intracellular calcium were measured by using the fluorescent calcium sensitive dye Fluo-4NW (Invitrogen). After 6–8 hours of transient transfection of HEK293T cells using lipofectamine 2000, 100,000 viable cells were plated into each well of a 96-well tissue culture treated BD-falcon optilux plates. Cells mock transfected with vector pMT4 alone were used as a negative control. Following 24 hours of incubation at 37°C, the media was removed and cells were incubated with the dye Fluo-4NW (Invitrogen) containing 77 µg/ml of probenecid for 1 hour, as recommended by the manufacturer. […] Dose–response curves were generated and EC50 values calculated by nonlinear regression analysis using PRISM software version 5.0 (GraphPad Software Inc, San Diego, CA) after subtracting the responses of mock-transfected cells stimulated with same concentrations of agonists.

A further assay concerns the target T2, TP A160S mutant (Homo sapiens, UniProt P21731, A160S).
T2 construct: expressed in transfected cells; HEK293T (calcium assays)
T2 sequence (P21731 1-343 A160S): T1 sequence (P21731 1-343 G164A) with A160S, A164G
As to the method:
as §1, §2

In assay [1] the target is T3, TP A160T mutant (nsSNP variant) (Homo sapiens, UniProt P21731, A160T).
T3 construct: expressed in transfected cells; HEK293T (calcium assays)
T3 sequence (P21731 1-343 A160T): T1 sequence (P21731 1-343 G164A) with A160T, A164G
How it is done: as §1, §2

The target in assay [2] is T4, WT-TP (wild type human thromboxane A2 receptor TPα) (Homo sapiens, UniProt P21731).
T4 construct: expressed in transfected cells; HEK293T (calcium assays)
T4 sequence (P21731 1-343): T1 sequence (P21731 1-343 G164A) with A164G
As to the method:
as §1, §2

The next assay has as its target T5, TP A160V mutant (Homo sapiens, UniProt P21731, A160V).
T5 construct: expressed in transfected cells; HEK293T (calcium assays)
T5 sequence (P21731 1-343 A160V): T1 sequence (P21731 1-343 G164A) with A160V, A164G
How it is done:
as §1, §2

One may read the EC50 as the concentration needed to bring the measured effect to its halfway point.

Residue numbers refer to the chain shown, from its start. Several values for one entry are separate records, joined by “and”; a condition that tells them apart may be missing. Equal values may be shown once.

Turning to `CCCCC[C@H](O)/C=C/[C@@H]1[C@@H](C/C=C\CCCC(=O)O)[C@H]2CO[C@@H]1C2` [U46619], the EC50 was 2.5 ± 0.2 nM at TP G164A mutant; 9.3 ± 0.3 nM on TP A160S mutant; 5.5 ± 0.3 nM in assay [1]; 13 nM and 13.1 nM in assay [2]; 9.5 ± 0.2 nM on TP A160V mutant.

For the origin of these results see publication PMC3260207, “Site-Directed Mutations and the Polymorphic Variant Ala160Thr in the Human Thromboxane Receptor Uncover a Structural Role for Transmembrane Helix 4” (PLoS ONE, 2012).
